The source of these data is article PMC9419673 (Nanoscale Advances, 2021).

One may read the solubility as how much of the substance goes into solution per volume. The low end stands for little dissolved substance, the high end for much dissolved substance.

Where only a bound is given, the exact number is not on record here.

Data set [1] in a line: Analytical RP-HPLC retention as a measure of hydrophobicity. The format is physicochemical. The following applies: longer retention time compared to native EETI-II, Fig. 1.
Data set [2] in a line: Solubility in aqueous buffer. The format is physicochemical. The following applies: pH 7.4, aqueous buffer.

As for `CCCCCCCCCCCCCCCC(=O)NCCCC[C@H](N)C(=O)NCC(=O)N[C@@H](CO)C(=O)NCC(=O)N[C@@H](CO)C(=O)NCC(=O)N[C@H]1CSSC[C@@H]2NC(=O)CNC(=O)[C@H](C)NC(=O)[C@H](CC(C)C)NC(=O)[C@@H]3CSSC[C@@H](C(=O)NCC(=O)O)NC(=O)[C@H](Cc4ccccc4)NC(=O)CNC(=O)[C@H](CC(N)=O)NC(=O)[C@@H]4CCCN4C(=O)CNC(=O)[C@H](CSSC[C@H](NC(=O)[C@H](CCCNC(=N)N)NC(=O)[C@H](CCSC)NC(=O)[C@H](CC(C)C)NC(=O)[C@H]([C@@H](C)CC)NC(=O)[C@H](CCCNC(=N)N)NC(=O)[C@@H]4CCCN4C1=O)C(=O)N[C@@H](CCCCN)C(=O)N[C@@H](CCC(N)=O)C(=O)N[C@@H](CC(=O)O)C(=O)N[C@@H](CO)C(=O)N[C@@H](CC(=O)O)C(=O)N3)NC(=O)[C@H](C(C)C)NC2=O` [CKP-C16, EETI-II-C16], the “hydrophobicity by analytical RP-HPLC retention time (in words)” value in data set [1] is on record as “more hydrophobic than EETI-II (CKP)”. Moreover, in data set [2], the solubility is > 500 µM.
